Laboratory results reported in patent publication US20080161400A1, “USE OF FORMS OF PROPOFOL FOR TREATING DISEASES ASSOCIATED WITH OXIDATIVE STRESS” (XenoPort, Inc., priority 2006, published 2008).

Key:
[1] = tested on: rats; experiment: Acute toxicity study in rats, single oral dose; format: in vivo
Protocol: Acute toxicity studies in rats were undertaken to assess the tolerance of a single oral dose of compound (2) formulated in water. […] Complete recovery from hypoactivity, sedation, and anesthesia occurred in all rats within about 8 hours after dose. Doses above about 1552 mg-eq/kg (about 800 mg-eq/kg of propofol) were not tested.

[2] = tested on: male rats; experiment: Multiple dose study in rats, five days, oral gavage once a day; format: in vivo; conditions: 49 to 97 mg-eq/kg orally once a day for five days
Protocol: Multiple dose studies in rats were performed by orally administering compound (2) formulated in water to groups of male rats at doses of 49 mg-eq/kg to 97 mg-eq/kg for a period of five days, by oral gavages administered once a day.

[3] = tested on: male beagle dogs; experiment: Acute toxicity study in dogs, single oral dose; format: in vivo
Protocol: Acute toxicity studies were also performed by orally administering a single dose of compound (2) formulated in water to groups of male beagle dogs at doses from about 25 mg-eq/kg to about 150 mg-eq/kg.

[4] = oral dosing, rats; cited from earlier work
[5] = orally administered as a homogeneous liquid suspension, relative to an equivalent intravenous dose of propofol; cited from earlier work

CC(C)c1cccc(C(C)C)c1OC(=O)OC[C@H](N)C(=O)O (stereo in doubt) [compound (2), 2-amino-3-(2,6-diisopropyl-phenoxycarbonyloxy)-propanoic acid]
Time to complete recovery from hypoactivity, sedation, and anesthesia after dose ([1]; all rats, single oral dose): ≤ 8 h
Tolerance of a single oral dose ([1]; rats, about 49 mg-eq/kg to about 1552 mg-eq/kg of administered compound, in water): well tolerated
Hypoactivity ([1]; rats, single oral dose about 49 up to about 388 mg-eq/kg, within about 30 minutes of dose, maintained up to 4 hours post dose): Transient hypoactivity was observed
Sedation ([1]; rats, single oral dose about 582 up to about 970 mg-eq/kg, within about 1.5 hours of dose, lasted up to 4 hours post dose): Sedation was observed
Anesthesia ([1]; rats, single oral dose about 1164 up to about 1552 mg-eq/kg, within about 1 hour of dose, lasted up to about 2 hours post dose): Anesthesia was observed
Adverse effects [2]: No adverse effects were observed
Sedation or anesthesia [2]: No sedation or anesthesia was observed
Tolerance of multiple doses [2]: well tolerated
Tolerance of a single oral dose ([3]; about 25 mg-eq/kg to about 150 mg-eq/kg, in water): well tolerated
Sedation or anesthesia ([3]; single oral dose about 25 to about 150 mg-eq/kg): No sedation or anesthesia was observed

CC(C)c1cccc(C(C)C)c1O [propofol, 2,6-diisopropylphenol]
Administered drug undergoing first pass metabolism [4]: approximately 90%
Oral bioavailability [5]: less than 5%
